Measured values as given in patent publication US20220401514A1, “ANTIMICROBIAL, BACTERIOPHAGE-DERIVED POLYPEPTIDES AND THEIR USE AGAINST GRAM-NEGATIVE AND ACID-FAST BACTERIA” (CONTRAFECT CORPORATION, priority 2019, published 2022).

Columns and labels:
[1] = tested on: Klebsiella pneumoniae strain 1139; experiment: Checkerboard assay (FICI) with antibiotics, K. pneumoniae; format: cell-based
Procedure, shortened: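 Antibiotics in 2-fold dilutions across one axis against Chp peptide dilutions on the other. FICI = MIC in combination/MIC alone for antibiotic plus the same ratio for peptide; minimum FICI used. Synergy at FICI ≤0.5, strongly additive >0.5 to <1, additive 1-<2, antagonistic ≥2.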

[2] = tested on: eight different strains of five species of Gram-negative bacteria; experiment: MBEC in eight strains of five species of Gram-negative bacteria; format: cell-based; settings: 24 h biofilm in LB, 16 h treatment
Experimental: Determination of Minimal Biofilm Eradicating Concentrations (MBEC). […] The OD600 of extracted crystal violet was determined. The MBEC value of each sample was determined as the minimum drug concentration required to remove >95% of biofilm biomass as assessed by crystal violet quantitation (in comparison to untreated controls).
MBEC values were likewise determined for Chp2, Chp2-M1, and Chp10-M1 in eight different strains of five species of Gram-negative bacteria. […] The films were then washed and stained with crystal violet to visualize the MBEC.

[3] = tested on: P. aeruginosa strain CFS-1292; experiment: Time-kill assay in CAA with 2.5% human serum; format: cell-based, Pseudomonas aeruginosa; settings: for Loss of bacterial viability: CAA with […] human serum, vs untreated controls
Experimental: Time-Kill Assay of Chp Peptide Activity. […] Exponential phase bacteria were then diluted 1:100 into CAA/HuS and peptide was added at a final concentration of either 1 or 10 μg/mL. Control cultures were included with no peptide added (i.e., buffer control).

[4] = checkerboard, in combination with Chp4-M1
[5] = checkerboard, in combination with Chp6-M1
[6] = checkerboard, in combination with Chp10-M1
[7] = checkerboard, in combination with Unp2-M1

NC[C@H]1O[C@H](O[C@H]2[C@H](O)[C@@H](O[C@H]3O[C@H](CO)[C@@H](O)[C@H](N)[C@H]3O)[C@H](N)C[C@@H]2N)[C@H](N)C[C@@H]1O [tobramycin, reference compound]
Antibiotic FIC [1, 4]: 0.125 | Antibiotic MIC [1, 4]: 3.906 ng/mL | Antibiotic FIC [1, 5]: 0.125 | Antibiotic MIC [1, 5]: 3.906 ng/mL | Antibiotic FIC [1, 6]: 0.125 | Antibiotic MIC [1, 6]: 3.906 ng/mL | Antibiotic FIC [1, 7]: 0.125 | Antibiotic MIC [1, 7]: 3.906 ng/mL | Antibiotic FIC ([1]; combined with Chp2): 0.25 | Antibiotic MIC in checkerboard ([1]; combined with Chp2): 7.812 ng/mL | Antibiotic FIC ([1]; combined with Chp2-M1): 0.25 | Antibiotic MIC in checkerboard ([1]; combined with Chp2-M1): 3.906 ng/mL | MBEC ([2]; A. baumanni (ATCC BAA-747)): 0.03 µg/mL | MBEC ([2]; E. cloacae (CCUG 63317)): <0.03 µg/mL | MBEC ([2]; E. coli (ATCC 25922)): <0.03 µg/mL | MBEC ([2]; E. coli (ATCC 35329)): <0.03 µg/mL | MBEC ([2]; E. coli (EC2)): <0.03 µg/mL | MBEC ([2]; K. pneumoniae (ATCC 700603)): 1 µg/mL | MBEC ([2]; K. pneumoniae (KP1)): 1 µg/mL | MBEC ([2]; P. aeruginosa (ATCC 27853)): 0.03 µg/mL

MARRYRLSRRRSRRLFSRTALRMHRRNRLRRIMRGGIRF [Chp4]
Loss of bacterial viability ([3]; 1 μg/mL, 1 hour): >3.5 log10 CFU/mL | Loss of bacterial viability ([3]; 1 μg/mL, 3 hours): >4 log10 CFU/mL | Loss of bacterial viability ([3]; 1 μg/mL, 24 hours): >4.8 log10 CFU/mL | Loss of bacterial viability ([3]; 10 μg/mL, 1 hour): >3.5 log10 CFU/mL | Loss of bacterial viability ([3]; 10 μg/mL, 3 hours): >4 log10 CFU/mL | Loss of bacterial viability ([3]; 10 μg/mL, 24 hours): >4.8 log10 CFU/mL | bacterial viability after treatment (time-kill) ([3]; 1, 3 and 24 hours, 1 μg/mL and 10 μg/mL, CAA + […] human serum): multi-log fold decreases
